Measured values as given in ChEMBL document CHEMBL2401631, “Small molecules inhibit the interaction of Nrf2 and the Keap1 Kelch domain through a non-covalent mechanism” (Bioorg Med Chem, 2013).
Calls of active or inactive are those of the source. The calls are words filed in the database; no cut-off is given here.

Columns and labels:
Assay type in all cases: cell-based
[1] = molecular target: T1, Nuclear factor erythroid 2-related factor 2 (Homo sapiens) (UniProt Q16236); assay: Activation of Nrf2 in human DLD1 cells assessed as stabilization of Nrf2 protein at 20 uM after 48 hrs by Western blot analysis; conditions: DLD-1
T1 sequence (whole entry): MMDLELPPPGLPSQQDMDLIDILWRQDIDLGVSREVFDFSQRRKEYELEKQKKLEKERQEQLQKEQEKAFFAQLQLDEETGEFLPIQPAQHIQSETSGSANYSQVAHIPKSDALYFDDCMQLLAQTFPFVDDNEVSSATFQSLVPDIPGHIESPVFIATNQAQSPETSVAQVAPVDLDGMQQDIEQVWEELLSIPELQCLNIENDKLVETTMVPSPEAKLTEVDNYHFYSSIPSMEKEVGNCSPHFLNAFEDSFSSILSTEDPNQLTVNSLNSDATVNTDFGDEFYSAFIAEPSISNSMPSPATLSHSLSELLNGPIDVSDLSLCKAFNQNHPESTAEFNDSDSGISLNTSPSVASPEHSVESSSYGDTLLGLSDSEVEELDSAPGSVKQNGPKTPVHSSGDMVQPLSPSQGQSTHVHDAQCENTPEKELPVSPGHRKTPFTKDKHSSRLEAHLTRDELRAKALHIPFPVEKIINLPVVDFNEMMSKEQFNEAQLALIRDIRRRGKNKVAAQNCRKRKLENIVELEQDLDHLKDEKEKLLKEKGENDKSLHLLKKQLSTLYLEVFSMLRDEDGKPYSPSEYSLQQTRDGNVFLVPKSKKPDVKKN

[2] = molecular target: T1, Nuclear factor erythroid 2-related factor 2 (Homo sapiens); assay: Activation of Nrf2 in human DLD1 cells after 24 to 48 hrs by luciferase reporter gene assay; conditions: DLD-1
[3] = molecular target: Kelch-like ECH-associated protein 1 (Homo sapiens) (UniProt Q14145); assay: Binding affinity to human recombinant Kelch-DC domain of Keap1 (321 to 609) expressed in HEK293T cells assessed as covalent adduct formation with cysteines at 1 mM after 15 hrs by 2D-FIDA assay; conditions: HEK-293T
Chain of Kelch-like ECH-associated protein 1 (Homo sapiens) (Q14145 whole entry, the tested form may be a part): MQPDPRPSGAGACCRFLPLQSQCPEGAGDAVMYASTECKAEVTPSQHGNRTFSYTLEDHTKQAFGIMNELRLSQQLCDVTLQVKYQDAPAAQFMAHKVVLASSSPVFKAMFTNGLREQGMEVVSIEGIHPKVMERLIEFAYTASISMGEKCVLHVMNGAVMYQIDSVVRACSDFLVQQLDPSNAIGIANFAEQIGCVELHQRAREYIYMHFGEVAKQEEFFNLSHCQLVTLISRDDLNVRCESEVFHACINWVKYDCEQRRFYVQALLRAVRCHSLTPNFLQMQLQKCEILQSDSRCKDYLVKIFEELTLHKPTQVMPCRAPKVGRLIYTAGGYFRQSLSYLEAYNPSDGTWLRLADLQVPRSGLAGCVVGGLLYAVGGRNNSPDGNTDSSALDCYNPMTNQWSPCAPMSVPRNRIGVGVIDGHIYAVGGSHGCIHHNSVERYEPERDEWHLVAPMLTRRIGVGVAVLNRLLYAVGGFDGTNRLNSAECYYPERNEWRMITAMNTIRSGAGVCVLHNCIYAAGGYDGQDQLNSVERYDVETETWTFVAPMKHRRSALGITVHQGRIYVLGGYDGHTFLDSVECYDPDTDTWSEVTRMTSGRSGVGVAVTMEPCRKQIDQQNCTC

[4] = molecular target: T1, Nuclear factor erythroid 2-related factor 2 (Homo sapiens); assay: Activation of Nrf2 in human DLD1 cells assessed as increase of NQO1 protein level at 20 uM after 48 hrs by Western blot analysis; conditions: DLD-1

Activity [1] | Activity [2] | Activity [3] | Activity [4] | Compound
Active | Dose-dependent effect | Active | Active | COC(=O)/C=C/C(=O)OC
– | Dose-dependent effect | – | – | COC(=O)/C=C/C(=O)O
Active | Dose-dependent effect | inactive | Active | COc1ccc(S(=O)(=O)Nc2ccc(NS(=O)(=O)c3ccc(OC)cc3)c3ccccc23)cc1
